Results from patent US12304912B2, “Fused bicyclic RAF inhibitors and methods for use thereof” (Jazz Pharmaceuticals Ireland Limited, priority 2020, dated 2025).
Values after ≈ are worked out from the molar mass of the structure shown. Where two headings read alike, the source gives them in different places.

Key:
[1] = Plasma protein binding assay, mouse plasma (mPPB); assay type: in vitro ADME; conditions: 5 μM, equilibrium dialysis 4 hours at 37° C.
Summary of the method: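 Equilibrium dialysis of 5 μM compound in previously frozen human or mouse plasma against phosphate buffer, 4 h at 37 °C. Both chambers quantified by LC-MS/MS; % free = (1−((PC−PF)/PC))×100.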

FeSSIF solubility assay = assay type: physicochemical; conditions: fed state simulated intestinal fluid (FeSSIF), thermodynamic from solid, pH 5 acetate buffer, 37° C., read-out: FESSIF Sol
Summary of the method: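 FeSSIF (pH 5 acetate buffer, 1 mL) was added to 1.0 mg solid compound and shaken at 650 rpm and 37 °C for 24 h. After filtration, dissolved compound was quantified by LC-UV against a 250 μM calibration standard.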

WiDr cells = assay: WiDr CellTiter-Glo 3D cell proliferation assay; assay type: cell-based; conditions: Homo sapiens, read-out: 3D WiDr pGI50 (converted)
[2] = Microsomal stability assay, human liver microsomes (HLM); assay type: in vitro ADME; conditions: 0.5 mg/mL protein, 1 μM substrate, 37° C.
Summary of the method: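 Substrate depletion: 1 μM compound incubated at 37° C. with cryopreserved mouse or human liver microsomes at 0.5 mg·mL^−1 protein. Timed aliquots quenched in ice-cold organic solvent and measured by LC-MS/MS; t1/2 and CLint derived from the slope of ln % remaining versus time.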

HCT-116 cells = assay: HCT-116 CellTiter-Glo 3D cell proliferation assay; assay type: cell-based; conditions: Homo sapiens
Description: HCT-116 CellTiter-Glo 3D Cell Proliferation Assay
The human HCT-116 colorectal carcinoma cell line (ATCC CCL-247) endogenously expresses the KRAS^G13D mutation, which leads to enhanced survival and proliferative signaling. […] On the first day, HCT-116 cells were harvested, resuspended in growth medium (McCoys5A with Glutamax (Life Technologies 36600021) with 10% heat-inactivated fetal bovine serum (Sigma F9665)), and counted. Cells were plated in 100 μl per well in each well of a Corning 7007 96-well clear round bottom Ultra-Low Attachment plate (VWR 444-1020) to a final density of 1000 cells per well. Cells were seeded for pre- and post-treatment readouts. The cells were then incubated at 37° C. and 5% CO2 for 3 days (72 hours) to allow spheroid formation. After 72 hours, the plate seeded for a pre-treatment read was removed from the incubator to allow equilibration to room temperature for 30 minutes, before CellTitre-Glo® reagent was added to each well. The plates were incubated at room temperature for 5 minutes shaking at 300 rpm, followed by an incubation of 25 minutes on the benchtop before being read on the Envision reader (Perkin Elmer) as described below. On the same day, the cells plated for the post-treatment readout were dosed with compounds to produce a 9-point dose response, where the top concentration was 15 μM and following concentrations were at 1/2 log dilution intervals. These cells were subsequently incubated at 37° C. and 5% CO2 for another 4 days (96 hours). After 4 days, the plate was removed from the incubator to allow equilibration to room temperature for 30 minutes and treated with CellTitre Glo® reagent as stated above. […] The CellTitre Glo® reagent lyses the cells and contains luciferin and a luciferase (Ultra-Glo™ Recombinant Luciferase), which in the presence of ATP and oxygen can produce bioluminescence from luciferin. Therefore, plates were read on an EnVision reader (Perkin Elmer) and luminescence signals were recorded. Cell proliferation was determined on 4 days after dosing relative to the pre-treatment read. All data were analyzed using the Dotmatics or GraphPad Prism software packages. Inhibition of proliferation was assessed by determination of the GI50 value, which was defined as the concentration of compound required to decrease the level of cell proliferation by 50% when compared to DMSO control.

[3] = HCT-116, HCT116 cells, 3D proliferation, read-out: 3D HCT116 pGI50 (converted)

Compound	mPPB (% free) [1]	solubility thermodynamic at 24 h (FeSSIF solubility assay)	GI50 (WiDr cells; WiDr)	microsomal CLint at 1 μM [2]	GI50 (HCT-116 cells; HCT-116, read-out: 3D HCT116 pGI50 (converted))	GI50 (WiDr cells; WiDr cells, 3D proliferation)	GI50 (HCT-116 cells; [3])
O=C(Nc1cc(Oc2ccc3c(c2)CC(c2nc(-c4ccccc4)c[nH]2)CO3)ncn1)C1CC1 (stereo not shown) [Compound 151, N-[6-[3-(4-phenyl-1H-imidazol-2-yl)chroman-6-yl]oxypyrimidin-4-yl]cyclopropanecarboxamide]	<0.1 % free	86.6 µg/mL (≈ 191 µM)	1150 nM	18.3 µL/min/mg	380 nM		
O=C1CCc2c(Oc3ccc4c(c3)CN(c3nc5cc(C(F)(F)F)ccc5[nH]3)CC4)ccnc2N1 [Compound 160]	<0.1 % free	3 µg/mL (≈ 6.26 µM)		2.7 µL/min/mg		2090 nM	617 nM
CC(C)CCc1c[nH]c(C2COc3ccc(Oc4ccnc5c4CCC(=O)N5)cc3C2)n1 (stereo not shown) [Compound 116]	0.23 % free	311 µg/mL (≈ 720 µM)		277 µL/min/mg		126 nM	66.1 nM
O=C(CN1CCOCC1)Nc1cc(Oc2ccc3c(c2)CC(c2nc(-c4ccccc4)c[nH]2)CO3)ccn1 (stereo not shown) [Compound 149]	0.14 % free	200 µg/mL (≈ 391 µM)		63.7 µL/min/mg		2240 nM	851 nM
CC(C)(C)CCc1c[nH]c(C2COc3ccc(Oc4ccnc5c4CCC(=O)N5)cc3C2)n1 (stereo not shown) [Compound 115, 5-[3-[4-(3,3-dimethylbutyl)-1H-imidazol-2-yl]chroman-6-yl]oxy-3,4-dihydro-1H-1,8-naphthyridin-2-one]	0.3 % free	129 µg/mL (≈ 289 µM)		277 µL/min/mg		38 nM	67.6 nM
O=C(Cn1cncn1)Nc1cc(Oc2ccc3c(c2)CC(c2nc(-c4ccccc4)c[nH]2)CO3)ccn1 (stereo not shown) [Compound 154]	0.7 % free	171 µg/mL (≈ 346 µM)		22.8 µL/min/mg		661 nM	61.7 nM
O=C(Cn1ccnc1)Nc1cc(Oc2ccc3c(c2)CC(c2nc(-c4ccccc4)c[nH]2)CO3)ccn1 (stereo not shown) [Compound 144]	0.8 % free	318 µg/mL (≈ 645 µM)		27.1 µL/min/mg		380 nM	100 nM
Cc1c[nH]c(-c2cc(Oc3ccc4c(c3)CC(c3nc(-c5ccccc5)c[nH]3)CO4)ccn2)n1 (stereo not shown) [Compound 143, 2-(4-methyl-1H-imidazol-2-yl)-4-[3-(4-phenyl-1H-imidazol-2-yl)chroman-6-yl]oxy-pyridine]	<0.1 % free	44.7 µg/mL (≈ 99.4 µM)		36.1 µL/min/mg		1510 nM	741 nM
